Data as given in patent US20070135398A1, “Process for the preparation of ciclesonide” (priority 2005, published 2007).

What was measured:
[1] = ester prodrug; Current Opinion in Investigational Drugs 2002, 3(1) 78-83; cited from earlier work
[2] = Decomposition in ethanol-water mixture; assay type: physicochemical; conditions: 20 mg in 6 mL ethanol and 4 mL purified water, 80° C., 64 hours
Experimental: The HPLC analysis was carried out using the following equipment and methodology. The column was a Prodigy ODS, 220×4.6 mm, 5 μm. The eluent was ethanol/water 50/50 at a flow rate of 2 mL/min. The detector was an UV-DAD at 242 nm.
Decomposition in Ethanol-Water Mixture
20 mg ciclesonide were dissolved in 6 mL ethanol and 4 mL purified water and the solution was kept at 80° C. for 64 hours.

CC(C)C(=O)OCC(=O)[C@@]12O[C@H](C3CCCCC3)O[C@@H]1C[C@H]1[C@@H]3CCC4=CC(=O)C=C[C@]4(C)[C@H]3[C@@H](O)C[C@@]12C [ciclesonide, pregna-1,4-diene-3,20-dione, 16,17-[[(R)-cyclohexylmethylene]bis(oxy)]-11-hydroxy-21-(2-methyl-1-oxopropoxy)-(11β,16α)-(9CI)]
oral bioavailability [1]: essentially devoid of oral bioavailability | formation of the corresponding 21-hydroxy analogue [2]: 3.99% | purity after storage in ethanol/water solution ([2]; initial purity 99.74%): 95.34%
